In patent US20050277586A1, “Peptide chemically modified with polyethylene glycol” (priority 2002, published 2005):

Experiments:
[1] = Measurement of turbidity in BSA (absorbance at 600 nm); type: physicochemical; details: 1% BSA, peptide 50 μM
Experimental: The solutions were evaluated for their absorbance at a wavelength of 600 nm by using a spectrophotometer (DU640, manufactured by Beckman).

[2] = Measurement of CD spectrum with and without SDS; type: physicochemical; details: 10 mM phosphate buffer pH 7, 50 mM NaCl, 35° C.
Experimental: The peptide dissolved in 10 mM phosphate buffer (pH=7) containing 50 mM NaCl was evaluated for its CD spectrum in the presence and in the absence of 5 mM SDS by using a circular dichroism spectrophotometer (J-500A, manufactured by JASCO). The cell length was 1 mm. The measurement was conducted at 35° C. for 6 times in total.

[3] = test system: Vero cell, T24 cell, A549 cell; assay: Nucleic acid-introducing ability, luciferase-expressing plasmid (procedure of Example 9); type: cell-based
Source text: A cell line established from monkey kidney (Vero cell) and a human bladder cancer cell (T24 cell) purchased from American Type Culture Collection (ATCC) and human lung cancer cell (A549 cell) purchased from Dainippon Pharmaceutical were inoculated on a 24 well culture plate (manufactured by NALGEN NUNC) at 1×10^5 cells/well. Vero cell and A549 cell were cultivated in DMEM (manufactured by Life Technologies Oriental) supplemented with 10% fetal bovine serum (hereinafter referred to as FBS, manufactured by NICHIREI), and T24 cell was cultivated in McCoy's 5a (manufactured by Life Technologies Oriental) supplemented with 10% FBS in 5% CO2 atmosphere at 37° C. for 24 hours. After removing the medium, opti-MEM (manufactured by Life Technologies Oriental) prepared to have the concentration of the luciferase-expressing plasmid prepared in Example 7 of 1 μg/mL and the concentration of the peptide prepared in Example 1 of 1.25, 2.5, or 5 μM was added, and the cells were cultivated for 5 hours. Next, in the case of Vero cell and A549 cell, the culture medium was replaced with DMEM supplemented with 10% FBS, and in the case of T24 cell, the medium was replaced with McCoy's 5a supplemented with 10% FBS, and cultivation was continued in 5% CO2 atmosphere and at 37° C. for another 24 hours. The luciferase activity expressed in the cell was then measured by the method instructed in luciferase assay system (manufactured by Promega). To be more specific, the cells were washed with phosphate-buffered saline (hereinafter referred to as PBS, manufactured by SIGMA), and the cells were lyzed with Passive Lysis Buffer attached to the kit.
(§1) 20 μL of this cell lysate and 100 μL of the Luciferase Assay Reagent II attached to the kit was added to a fluorescence-measuring plate (Microlite™ 1 plate, manufactured by Dynatech), and after mixing, fluorescence was measured for 1 second by using a multilabel counter (ARVO™ SY1420 MULTILABEL COUNTER, manufactured by Wallac Beltold.
Concentration of the protein in the cell lysate was measured by mixing 8 μL of the cell lysate and 200 μL of the protein assay solution (manufactured by Biorad) with 792 μL of ultrapure water in a disposable cuvette (UV fluorescent cuvette A204X, manufactured by Funakoshi), allowing the mixture to stand for 5 minutes at room temperature, and measuring the absorption at 595 nm with a spectrophotometer (DU640, manufactured by Beckman). Bovine serum albumin (BSA) was used for the standard protein. By using the thus obtained results, count per 1 second per 1 mg of protein of the cell lysate was calculated to thereby use the count as the luciferase activity, and the highest count in the three conditions of different peptide concentration was designated the gene-introducing ability of the peptide.

Vero cell = assay: Accumulation of FITC-labeled oligonucleotide in cell nucleus; type: cell-based, monkey; details: 300 nM FITC-labeled oligonucleotide, 2.5 μM peptide
Experimental: Vero cell was inoculated in the well of a chamber slide (Lab-Tek II chamber slide, size 4 well, manufactured by NALGEN NUNC) at a rate of 1×10^5 cells/well, and the cells were cultivated in DMEM supplemented with 10% FBS in 5% CO2 atmosphere at 37° C. for 24 hours. After removing the medium, opti-MEM containing 300 nM FITC-labeled oligonucleotide prepared in Example 6 and 2.5 μM of the peptide of SEQ ID NO: 1 prepared in Example 1 was added, and the cultivation was continued for 4 hours. The medium was replaced with DMEM supplemented with 10% FBS, and the cultivation was continued in 5% CO2 atmosphere at 37° C. for another 24 hours. After washing the cell with PBS, the cells were fixed by using PBS containing 4% paraformaldehyde, and accumulation of FITC-labeled oligonucleotide in the cell nucleus was confirmed by using a fluorescence microscope (AH-3, manufactured by Olympus). […] On the other hand, accumulation of FITC-labeled oligonucleotide in the cell was not confirmed in the absence of the peptide of SEQ ID NO: 1.

[4] = Affinity for phosphatidyl serine by surface plasmon resonance (Biacore 2000); type: binding; details: in the presence of 0.1 mg/mL BSA
Experimental: The specific affinity of the peptide for phosphatidyl serine was evaluated by means of surface plasmon resonance (SPR) using Biacore 2000 (manufactured by Biacore). To be more specific, phosphatidyl choline was immobilized on flow cell 1, and 50% of phosphatidyl serine and 50% of phosphatidyl choline were immobilized on flow cell 2 of HPA chip (manufactured by Biacore), and ability of the peptide to bind to the phospholipid was evaluated in the presence of 0.1 mg/mL BSA to thereby evaluate the affinity.

A549 cell = assay: Luciferase-expressing plasmid introduction into A549 cell; type: cell-based, human
Source text: A cell line established from monkey kidney (Vero cell) and a human bladder cancer cell (T24 cell) purchased from American Type Culture Collection (ATCC) and human lung cancer cell (A549 cell) purchased from Dainippon Pharmaceutical were inoculated on a 24 well culture plate (manufactured by NALGEN NUNC) at 1×10^5 cells/well. Vero cell and A549 cell were cultivated in DMEM (manufactured by Life Technologies Oriental) supplemented with 10% fetal bovine serum (hereinafter referred to as FBS, manufactured by NICHIREI), and T24 cell was cultivated in McCoy's 5a (manufactured by Life Technologies Oriental) supplemented with 10% FBS in 5% CO2 atmosphere at 37° C. for 24 hours. […] The luciferase activity expressed in the cell was then measured by the method instructed in luciferase assay system (manufactured by Promega). […]
as §1, with “Beltold. […]” for “Beltold.”

Sequence: TRYLRIHPRSWVHQIALRLRYLRIHPRSWVHQIALRS [SEQ ID NO: 1]
- OD 600 [1]: 0.03
- α-helix structure in CD spectroscopy in the presence of SDS ([2]; 5 mM SDS): are in α-helix structure in the presence of SDS
- α-helix structure in CD spectroscopy in the absence of SDS ([2]; no SDS): do not take α-helix structure in an aqueous solution solely containing an inorganic salt
- Nucleic acid-introducing ability ([3]; luciferase plasmid 1 μg/mL, highest count of peptide 1.25, 2.5 or 5 μM, cell line not stated): 3+ (1,000,000 to less than 10,000,000)
- Ability of introducing the nucleic acid into a cell ([3]; procedure of Example 9): found to have the ability of introducing the nucleic acid into a cell
- Accumulation of FITC-labeled oligonucleotide in the cell nucleus (Vero cell): FITC-labeled oligonucleotide was accumulated in the cell nucleus
- Binding to flow cell 2 (50% phosphatidyl serine, 50% phosphatidyl choline) and flow cell 1 (phosphatidyl choline) [4]: stronger
- Luciferase activity (A549 cell): 8.7 × 10^4 cps/mg protein
